In patent publication US20260232666A1, “COMPOSITIONS AND METHODS FOR INHIBITION OF RAS” (TheRas, Inc., priority 2023, published 2026):

Experiments:
[1] = target: T1, GppNHp-loaded KRAS4b (amino acids 1-169) G12C/C118S protein (Homo sapiens, UniProt P01116, C118S/G12C); test: Covalent cysteine 12 modification by MALDI-TOF MS, GppNHp-loaded KRAS G12C; assay type: binding; conditions: 15 minutes reaction time point
T1 construct: KRAS4b (amino acids 1-169) G12C/C118S protein; made in house
Method in brief: (§1)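 Covalent adduct formation measured by linear-mode MALDI-TOF MS as modified peak height over summed peak heights, 15 min time point reported. Reactions: KRAS4b 1-169 G12C/C118S (1 μM, loaded with GppNHp, GTP or GDP) plus compound at 1:2.5 ratio, pH 7.3 HEPES/NaCl/MgCl2, room temperature.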

[2] = target: T2, GDP-loaded KRAS4b (amino acids 1-169) G12C/C118S protein (Homo sapiens, UniProt P01116, C118S/G12C); test: Covalent cysteine 12 modification by MALDI-TOF MS, GDP-loaded KRAS G12C; assay type: binding; conditions: 15 minutes reaction time point
T2 construct: KRAS4b (amino acids 1-169) G12C/C118S protein; made in house
Method in brief: as §1

[3] = target: T3, Avi-KRAS G12C (1-169) GppNHp/RAF1 RBD-3×FLAG (52-151) (Homo sapiens, UniProt P01116, G12C); test: Raf1 RBD-KRAS G12C-GppNHp disruption assay (protein:protein interaction HTRF); assay type: biochemical
T3 construct: Avi-KRAS G12C (1-169) GppNHp; Avi (N)
Method in brief: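 HTRF measuring RAF1 RBD binding to GppNHp-loaded KRAS G12C (50 nM) in Tris pH 7.5, 100 mM NaCl, 5 mM MgCl2, 10% DMSO. Compound, KRAS, RBD and detection reagents each added sequentially with 1 h room-temperature incubations; 10-point titration; excitation 320 nm, emission 615 nm; activity as % of DMSO; IC50 derived.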

GppNHp-KRAS G12C percent of modification [1]: A (percent of modification ≥70%)
GDP-KRAS G12C percent of modification [2]: A (percent of modification ≥70%)
IC50 [3]: < 500 nM
SMILES: C=CC(=O)N1CC[C@@H](N(C)c2nc(OC[C@@H]3C[C@@H](OC)CN3CC)nc3c(F)c(-c4ccc(F)c5sc(N)c(C#N)c45)c(Cl)cc23)[C@@H]1C [Compound 100]
